These results are taken from patent publication US10889609B2, “Mannitol-based amphipathic compound and use thereof” (Industry-University Cooperation Foundation Hanyang …, priority 2015, dated 2021).

Values joined by “and” are separate entries in the source; they are usually repeats but may differ in a detail not shown here. Identical values can stand only once.

The nature of series [1]: Critical micellar concentration (CMC) by hydrophobic fluorescence stain diphenylhexatriene (DPH). The note with it: aqueous solution. It counts as physicochemical. An excerpt:
A method of measuring the CMC is not particularly limited, but the methods widely known in the related art may be used. For example, the CMC may be measured by a fluorescence detection method using diphenylhexatriene (DPH).
(§1) To determine characteristics of the MNAs of Preparative Example 1 to 10 synthesized according to the synthesis method of Example 1, the molecular weights (M.W.) and critical micellar concentrations (CMCs) of the MNAs and the hydrodynamic radii (Rh) of the formed micelles were measured.
(§2) Specifically, the critical micellar concentration (CMC) was measured using a hydrophobic fluorescence stain (diphenylhexatriene (DPH)), and the hydrodynamic radii (Rh) of the micelles formed by each of the preparations were measured by a dynamic light scattering (DLS) experiment. The measured results were compared to those of DDM that is a conventional amphipathic molecule (a detergent), and are listed in Table 1.

Series [2] in a line: Hydrodynamic radius and size distribution of micelles by dynamic light scattering (DLS). It counts as physicochemical.
Description: A method of measuring the radius of the micelle is not particularly limited, but the methods widely known in the related art may be used. For example, the radius of the micelle may be measured using a dynamic light scattering (DLS) experiment.
as §1, §2
Meanwhile, the size distributions of the micelles formed by the MNAs were measured using DLS, and the measurement results are shown in FIG. 17. The MNAs were used at a content of 1.0% by weight.

In the next series the target is T1, boron transporter (Bor1) (Arabidopsis thaliana, UniProt Q8VYR7).
T1 construct: made in house; host or cells: Saccharomyces cerevisiae FGY217
T1 sequence (Q8VYR7 whole entry): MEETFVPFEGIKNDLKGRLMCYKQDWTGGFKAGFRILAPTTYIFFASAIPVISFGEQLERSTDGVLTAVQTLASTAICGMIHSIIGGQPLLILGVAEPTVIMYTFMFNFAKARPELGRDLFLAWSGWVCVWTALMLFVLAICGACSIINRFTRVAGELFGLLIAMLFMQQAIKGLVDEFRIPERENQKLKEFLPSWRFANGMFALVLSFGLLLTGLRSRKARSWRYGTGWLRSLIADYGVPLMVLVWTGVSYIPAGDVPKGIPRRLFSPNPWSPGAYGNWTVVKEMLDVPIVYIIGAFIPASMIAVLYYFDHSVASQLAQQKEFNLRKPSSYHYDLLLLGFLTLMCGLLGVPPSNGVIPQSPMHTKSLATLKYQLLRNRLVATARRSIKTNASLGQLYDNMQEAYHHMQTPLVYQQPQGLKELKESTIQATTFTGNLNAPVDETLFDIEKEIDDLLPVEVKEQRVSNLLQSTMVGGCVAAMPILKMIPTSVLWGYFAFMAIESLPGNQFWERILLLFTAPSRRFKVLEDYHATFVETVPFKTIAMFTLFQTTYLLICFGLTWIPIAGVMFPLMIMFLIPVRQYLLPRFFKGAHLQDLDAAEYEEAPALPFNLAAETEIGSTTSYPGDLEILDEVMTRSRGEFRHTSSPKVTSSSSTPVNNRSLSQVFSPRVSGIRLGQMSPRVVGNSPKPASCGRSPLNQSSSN
The experiment in a line: Structural stability and extraction of Bor1 by heat fluorescence size exclusion chromatography (hFSEC). As to the method: An experiment for measuring the structural stability of a boron transporter (Bor1) by the MNAs was performed. The structural stability of Bor1 was measured using heat fluorescence size exclusion chromatography (hFSEC), and the concentrations of the MNAs and DDM were CMC plus 0.04% by weight. Specifically, Bor1 of Arabidopsis thaliana was expressed in Saccharomyces cerevisiae FGY217 cells as a fusion protein having a C-terminal GFP-His tag. The cells were grown in a -URA medium supplemented with 0.1% glucose. Expression of proteins was induced by adding 2% galactose, and the cells were then cultured at 20° C. for 18 hours. Here, the cell culture was carried out according to the method described in the article by D. Drew et al. (Nat. Protoc. 2008, 3, 784-798.). The cells were collected to prepare membranes, and the cell collection was carried out according to the method described in the article by J. Leung et al. (Protein Expr. Purif. 2010, 72, 139-146.). The membranes including the Bor1-GFP fusion protein were diluted with phosphate-buffered saline (PBS, pH 7.4) until the final concentration of the total proteins reached 2.8 mg/mL. In this case, 1% by weight of DDM or 1% by weight of MNA (MNA-1, MNA-2, MNA-3, MNA-4, MNA-5, MNA-6, or MNA-7) was added to the PBS. Samples were incubated for an hour while shaking at 4° C., and insoluble materials were then removed by centrifugation at 14,000 g and 4° C. for an hour. The supernatant including the dissolved protein samples was heated at 40° C. for 10 minutes, and the strongly aggregated proteins were removed by centrifugation at 14,000 g and 4° C. for 10 minutes. 200 μL of the supernatant of the samples was injected into a Superose 6 10/300 column equilibrated with 20 mM Tris (pH 7.5), 150 mM NaCl, and 0.03% DDM. Each of elution fractions was collected in 200 μL fractions at a retention volume of 6.4 mL (e.g., 6.4 mL after elusion) in a clear bottom 96-well plate. The GFP fluorescence of each of the fractions was measured at an excitation wavelength of 470 nm and an emission wavelength of 512 nm.

For series [3], the target named is T2, human β2 adrenergic receptor (β2AR) (Homo sapiens, UniProt P07550).
T2 construct: made in house
T2 sequence (P07550 whole entry): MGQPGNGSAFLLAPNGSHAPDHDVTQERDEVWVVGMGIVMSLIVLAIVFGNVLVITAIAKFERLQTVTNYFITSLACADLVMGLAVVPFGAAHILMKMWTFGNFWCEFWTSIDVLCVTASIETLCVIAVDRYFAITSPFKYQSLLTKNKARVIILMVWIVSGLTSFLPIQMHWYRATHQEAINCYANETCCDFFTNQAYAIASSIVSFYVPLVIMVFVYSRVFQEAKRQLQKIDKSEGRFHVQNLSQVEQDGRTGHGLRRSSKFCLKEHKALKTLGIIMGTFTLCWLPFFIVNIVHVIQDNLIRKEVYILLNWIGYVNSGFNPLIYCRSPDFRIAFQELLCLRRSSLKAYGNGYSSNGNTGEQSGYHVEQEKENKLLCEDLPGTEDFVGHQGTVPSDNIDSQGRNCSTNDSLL
The experiment in a line: Bimane fluorescence spectra of mBBr-β2AR with ISO or ISO plus G-protein. It counts as biochemical. Conditions: combination of ISO and G-protein, FIG. 20. On the procedure: Experiments for measuring the structural stabilities of a human β2 adrenergic receptor (β2AR), a G-protein-coupled receptor (GPCR), in the MNAs were performed.
Experiments for measuring the structural changes and structural stabilities of mBBr-β2AR by the MNAs (MNA-5, MNA-6, MNA-7) and DDM according to the presence or absence of a full agonist (isopreoterenol (ISO)) or a combination of ISO and G-protein were performed.
Specifically, β2AR dissolved in 0.1% DDM was purified according to the method disclosed in the article by D. M. Rosenbaum et al. (Science 2007, 318, 1266-1273) and then concentrated to a concentration of approximately 1 mg/mL. […] The mBBr-labeled β2AR was cultured for 30 minutes, and the mBBr spectra thereof were measured and compared to the spectra of the mBBr-labeled receptor dissolved in 0.1% DDM. The fluorescence of the mBBr-labeled β2AR was measured at 370 nm and thus determined by emission from 430 to 510 nm at 1-nm increments with 1 nm s^−1 integration using a Spex FluoroMax-3 spectrofluorometer (Jobin Yvon Inc.) which was run in a photon counting mode through a 4-nm emission bandwidth pass. mBBr dissolved in DDM was used as the positive control. […]

The target of series [4] is T2, human β2 adrenergic receptor (β2AR). The experiment in a line: mBBr-β2AR bimane spectra at detergent concentration below CMC. Conditions: detergent diluted to a fiftieth of its CMC, compared to DDM, FIG. 21. The class given is biochemical. On the procedure:
Experiments for comparing the structural changes of the β2AR protein by the MNAs and DDM at a concentration below CMCs of the amphipathic molecules were performed.
Specifically, 0.5 μL of a non-ligand mBBr-labeled receptor dissolved at 50 μNI in a 20×CMC concentration of MNA-5, MNA-6, or MNA-7 was diluted with 500 μL of an NH buffer (20 mM HEPES pH 7.5, and 100 mM NaCl). The proteins were cultured for 30 minutes, and the bimane spectra thereof were measured. The receptor dissolved in 0.1% DDM was diluted with the NH buffer, and used as the control. Data was presented as an average of three separate experiments performed in triplicate.

Turning to `CCCCCCCCCCCCO[C@H]([C@@H](OCCCCCCCCCCCC)[C@H](CO[C@@H]1OC(CO)[C@@H](O)C(O)C1O)O[C@@H]1OC(CO)[C@@H](O)C(O)C1O)[C@H](CO[C@@H]1OC(CO)[C@@H](O)C(O)C1O)O[C@@H]1OC(CO)[C@@H](O)C(O)C1O` (stereo partly drawn) [MNA-5], the “CMC” value in series [1] is recorded as about 0.004 mM. In addition, in series [2], the “Rh (nm), hydrodynamic radius of micelles” value was 3.0 nm and 3.0 ± 0.01 nm. Besides, the Bor1 extraction efficiency at boron transporter (Bor1) (1% by weight detergent, membranes with Bor1-GFP) was determined as 60%. Moreover, on boron transporter (Bor1) (hFSEC, 40° C. for 10 minutes, FIG. 18), the “level of Bor1 protein aggregation after heat treatment” value is “lower level of Bor1 aggregation than DDM”. Also, the “bimane fluorescence spectra of mBBr-β2AR” value in series [3] is on record as “slightly higher fluorescence intensity than DDM”. In addition, the “stability of β2AR” value in series [4] was “secured for a prolonged period of time”.
